Here are results for 25 molecules from PubChem BioAssay (NCI).

“And” between values parts separate entries of the source, which are not always exact repeats. Identical values can stand only once.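 Protocol summary: plate cells (96-well), add compound at 5 concentrations, incubate 48 h, interpolate endpoints linearly. Here, GI50 denotes the concentration required for 50% inhibition of growth. TGI is the concentration that stops growth completely.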 Where a SMILES comes first, the peptide text is derived from it. [ ]: non-standard residue; d: D form. The star is where a group is joined. ξ: configuration not given here. ξF = NC(Cc1ccccc1)C(=O)O; Cbz = O=C(OCc1ccccc1)* Some results are limits rather than exact numbers.

For the first test, the system named is HCT-15 colon. In words: NCI anticancer screen, dose series, 48 h.
Molecule `O=S(=O)(/N=C(\NO)Nc1ccc(Cl)cc1)c1cc(C(F)(F)F)cc(C(F)(F)F)c1` yielded a TGI of 38.7 µM.

The test system of another test is MCF7 breast. In words: NCI anticancer screen, dose series, 48 h.
`NNc1nnc(CCCCCCCCc2nnc(NN)n2N)n1N`: the TGI was more than 100 µM.
With `CCOC(=O)c1c(NC(=O)c2ccccc2)c(C#N)c2n1CCCCC2`, the TGI is more than 100 µM.
`CCN1/C(=C/C#C/C(C)=C\c2sc3ccc(Cl)cc3[n+]2CC)Sc2ccc(Cl)cc21` showed a TGI of 15.3 µM.
For `Cn1c2ccccc2c(=O)c2c(O)cc3c(c21)C1OCC(C)(O)C1O3` (stereo not given), the TGI was more than 100 µM.
In turn, `COC(=O)[C@@H]1CO[C@H](C(C)(C)C)N1C(=O)N1C=CC(=O)C[C@H]1C` showed a TGI of more than 100 µM.
`COc1cc(C2c3cc4c(cc3OC(NN)C2C)OCO4)cc(OC)c1O` (stereo not given): the TGI is more than 100 µM.
The molecule `NC1=NC2(COC(c3ccccc3)(c3ccccc3)c3ccccc3)OC(COC(c3ccccc3)(c3ccccc3)c3ccccc3)C(O)C2O1` (stereo not given) yielded a TGI of more than 100 µM.
For `CCOC(=O)CNC(=O)C(Cc1ccccc1)NC(=O)OCc1ccccc1` (stereo not given) (Cbz-[ξF]-Gly-OEt), the TGI was more than 100 µM.
As to `CC1(C)O[C@@H]2[C@@H](COC(C)(C)O[C@H]2C2SCCCS2)O1`, the TGI is more than 100 µM.
As for `O=C(CCc1cc(O)cc(O)c1)NCCc1cc(O)cc(OCc2ccccc2)c1`, the TGI was more than 100 µM.
Molecule `O=C(O)CCCc1ccc2c(c1)CC1(C2)Cc2cc3c(cc2C1)CCCC3` returned a TGI of 94.2 µM.
Same read-out and setting: the result for `COC(=O)/C=C(\C(=O)OC)c1cc(C)c2cc(C(C)C)ccc(C)c1-2` reads 72.8 µM; that for `Cc1cc2nc3c(C#N)c(-c4ccccc4)/c(=C\Nc4ccc(F)cc4)c(=O)n3c2cc1C`, more than 100 µM; that for `COC(=O)c1c(C)cccc1/C=C1\Cc2ccc(C)c(C)c2C1=O`, more than 100 µM.

A further test relates to MDA-MB-435. The experiment in a line: NCI anticancer screen, dose series, 48 h.
As for `O=[N+]([O-])c1ccc(/C=N/Nc2nc3ccccc3[nH]2)o1`, the TGI came out at 18 µM.
As to `NNc1nnc(CCCCCCCCc2nnc(NN)n2N)n1N`, the TGI is more than 100 µM.
The same measure, in the same setting: the result for `CCOC(=O)c1c(NC(=O)c2ccccc2)c(C#N)c2n1CCCCC2` reads more than 100 µM.
In turn, `O=c1cc(Nc2cccc(O)c2)[nH]c(=O)[nH]1` had a TGI of more than 100 µM.
Turning to `CCN1/C(=C/C#C/C(C)=C\c2sc3ccc(Cl)cc3[n+]2CC)Sc2ccc(Cl)cc21`, the TGI worked out at 13.7 µM.
The molecule `CSc1nncc(-c2cc3c(c(SC)n2)CCCC3)n1` showed a TGI of more than 100 µM.
As for `Cn1c2ccccc2c(=O)c2c(O)cc3c(c21)C1OCC(C)(O)C1O3` (stereo not given), the TGI is more than 100 µM.
Consider `COC(=O)[C@@H]1CO[C@H](C(C)(C)C)N1C(=O)N1C=CC(=O)C[C@H]1C`, for which the TGI was more than 100 µM.
On to `NC1=NC2(COC(c3ccccc3)(c3ccccc3)c3ccccc3)OC(COC(c3ccccc3)(c3ccccc3)c3ccccc3)C(O)C2O1` (stereo not given), for which the TGI is more than 100 µM.
The same measure, in the same setting: the result for `CCOC(=O)CNC(=O)C(Cc1ccccc1)NC(=O)OCc1ccccc1` (stereo not given) (Cbz-[ξF]-Gly-OEt) reads more than 100 µM; that for `CC1(C)O[C@@H]2[C@@H](COC(C)(C)O[C@H]2C2SCCCS2)O1`, more than 100 µM; that for `O=C(CCc1cc(O)cc(O)c1)NCCc1cc(O)cc(OCc2ccccc2)c1`, more than 100 µM.
Consider `O=C(O)CCCc1ccc2c(c1)CC1(C2)Cc2cc3c(cc2C1)CCCC3`, for which the TGI came to 38 µM.
The molecule `COC(=O)/C=C(\C(=O)OC)c1cc(C)c2cc(C(C)C)ccc(C)c1-2` came in with a TGI of more than 100 µM.
In the case of `C=CCON(C(=O)OC(C)(C)C)C(C)(C)C`, the TGI was more than 100 µM.
Consider `O=[N+]([O-])c1cccc2nc3ccccc3c(NCCCCCNc3c4ccccc4nc4cccc([N+](=O)[O-])c34)c12`, for which the GI50 was 0.105 µM and 0.0111 µM; the TGI is 0.259 µM and 0.0288 µM.
Molecule `Cc1cc2nc3c(C#N)c(-c4ccccc4)/c(=C\Nc4ccc(F)cc4)c(=O)n3c2cc1C` showed a TGI of more than 100 µM.
In turn, `O=S(=O)(/N=C(\NO)Nc1ccc(Cl)cc1)c1cc(C(F)(F)F)cc(C(F)(F)F)c1` returned a TGI of 37.6 µM.

The test system of another test is OVCAR-3 ovarian. In words: NCI anticancer screen, dose series, 48 h.
In turn, `C1CSCCSCCCS[C@@H]2CCCCC2SC1` (stereo not given in full) displayed a TGI of more than 100 µM.
In the case of `O=[N+]([O-])c1ccc(/C=N/Nc2nc3ccccc3[nH]2)o1`, the TGI was 28.1 µM.
The same measure, in the same setting: the result for `O=c1cc(Nc2cccc(O)c2)[nH]c(=O)[nH]1` reads more than 100 µM; that for `CSc1nncc(-c2cc3c(c(SC)n2)CCCC3)n1`, more than 100 µM; that for `COC(=O)[C@@H]1CO[C@H](C(C)(C)C)N1C(=O)N1C=CC(=O)C[C@H]1C`, more than 100 µM.
For `COc1cc(C2c3cc4c(cc3OC(NN)C2C)OCO4)cc(OC)c1O` (stereo not given), the TGI was more than 100 µM.
Molecule `NC1=NC2(COC(c3ccccc3)(c3ccccc3)c3ccccc3)OC(COC(c3ccccc3)(c3ccccc3)c3ccccc3)C(O)C2O1` (stereo not given) came in with a TGI of more than 100 µM.
Consider `CCOC(=O)CNC(=O)C(Cc1ccccc1)NC(=O)OCc1ccccc1` (stereo not given) (Cbz-[ξF]-Gly-OEt), for which the TGI was more than 100 µM.
The same measure, in the same setting: then `CC1(C)O[C@@H]2[C@@H](COC(C)(C)O[C@H]2C2SCCCS2)O1`, with more than 100 µM; and `O=C(CCc1cc(O)cc(O)c1)NCCc1cc(O)cc(OCc2ccccc2)c1`, with more than 100 µM.
Regarding `O=C(O)CCCc1ccc2c(c1)CC1(C2)Cc2cc3c(cc2C1)CCCC3`, the TGI worked out at 35.2 µM.
Molecule `COC(=O)/C=C(\C(=O)OC)c1cc(C)c2cc(C(C)C)ccc(C)c1-2` showed a TGI of more than 100 µM.
In turn, `C=CCON(C(=O)OC(C)(C)C)C(C)(C)C` had a TGI of more than 100 µM.
In the case of `O=[N+]([O-])c1cccc2nc3ccccc3c(NCCCCCNc3c4ccccc4nc4cccc([N+](=O)[O-])c34)c12`, the GI50 is 0.0135 µM; the TGI is 0.262 µM and 0.054 µM.
The molecule `Cc1cc2nc3c(C#N)c(-c4ccccc4)/c(=C\Nc4ccc(F)cc4)c(=O)n3c2cc1C` had a TGI of more than 100 µM.
The molecule `COC(=O)c1c(C)cccc1/C=C1\Cc2ccc(C)c(C)c2C1=O` had a TGI of more than 100 µM.
Regarding `O=C(c1ccccc1)C1(Br)S(=O)(=O)OCCOS1(=O)=O`, the TGI was more than 100 µM.
`C1CCC(N=C2N(C3CCCCC3)C(=NC3CCCCC3)N2C2CCCCC2)CC1` came in with a TGI of more than 100 µM.
In the case of `O=S(=O)(/N=C(\NO)Nc1ccc(Cl)cc1)c1cc(C(F)(F)F)cc(C(F)(F)F)c1`, the TGI is 34.8 µM.

The subject of the next test is OVCAR-4 ovarian. In words: NCI anticancer screen, dose series, 48 h.
`C1CSCCSCCCS[C@@H]2CCCCC2SC1` (stereo not given in full) returned a TGI of more than 100 µM.
For `O=[N+]([O-])c1ccc(/C=N/Nc2nc3ccccc3[nH]2)o1`, the TGI is 21.6 µM.
Consider `NNc1nnc(CCCCCCCCc2nnc(NN)n2N)n1N`, for which the TGI is more than 100 µM.
Regarding `CCOC(=O)c1c(NC(=O)c2ccccc2)c(C#N)c2n1CCCCC2`, the TGI was more than 100 µM.
In turn, `O=c1cc(Nc2cccc(O)c2)[nH]c(=O)[nH]1` came in with a TGI of more than 100 µM.
Same read-out and setting: the result for `CCN1/C(=C/C#C/C(C)=C\c2sc3ccc(Cl)cc3[n+]2CC)Sc2ccc(Cl)cc21` reads more than 100 µM; that for `CSc1nncc(-c2cc3c(c(SC)n2)CCCC3)n1`, more than 100 µM; that for `O=C1c2ccccc2N2OC3(N4CCOCC4)CCCC3C12c1ccccc1` (stereo not given), more than 100 µM.
`Cn1c2ccccc2c(=O)c2c(O)cc3c(c21)C1OCC(C)(O)C1O3` (stereo not given): the TGI was more than 100 µM.
`COc1cc(C2c3cc4c(cc3OC(NN)C2C)OCO4)cc(OC)c1O` (stereo not given) returned a TGI of more than 100 µM.
On the same count and under the same terms, the result for `COC(=O)[C@@]12OC[C@]34C([C@@H](O)C1O)[C@@]1(C)CC(=O)C(OC(=O)CC(C)C(F)(F)F)=C(C)C1C[C@H]3OC(=O)[C@H](O)[C@H]42` (stereo not given in full) reads more than 62.5 µM.
